Each block holds one sequence with its values, some of them ahead of it.
Target: T1, MyD88^TIR (Homo sapiens, UniProt Q99836)
T1 construct: MyD88 (residues 148–296); 6xHis; made in house; host or cells: E. coli BL21 (DE3)
Assay: T‐Surf phage library (P8 and P3) selection against MyD88^TIR, four rounds, NGS read counts
Format: binding
Conditions: for P8_MyD88 Rank (after) / P8_MyD88 Rank (before): P8 library; for Population: 4th round of selection against MyD88 TIR, share of NGS reads; for P3_MyD88 Rank (after) / P3_MyD88 Rank (before): P3 library
Protocol: T‐Surf libraries were screened against the immobilized TIR domains of two major human TLR adaptor proteins, MAL^TIR and MyD88^TIR, allowing cross‐species selection of TIR‐binding motifs with 190 946 TIR‐derived peptides in a single binding assay (Scheme 1). Enriched phage pools from the fourth round of selection were analyzed using NGS after barcoding the peptide‐coding regions of the phage pools.
Phage display screening was performed by coating two wells of a 96‐well plate (Maxisorp, Thermo Fisher Scientific) with 100 µL of 5 µg mL^−1 TIR domains overnight; then, the coated wells were blocked with 200 µL of blocking buffer (0.2% BSA in PBS) and set aside for 1 h at 4 °C with gentle shaking. Next, 100 µL of the phage library was added to the wells and incubated for 1 h at room temperature (RT; 20 – 22 °C) with gentle shaking. The plate was washed four times with PBS containing 0.5% Tween‐20; the bound phages were eluted by adding 100 µL of 100 mM HCl to each well. The elute was neutralized with 10 µL of 1.0 M Tris‐HCl (pH 11.0). E. coli TG1 cells were grown to the log phase (A600 = ≈0.6), and 1 mL of the culture was incubated with 100 µL of the eluted phages for 30 min at 37 °C, with shaking at 200 rpm. Next, 1 µL of M13KO7 helper phages was added, followed by incubation for 45 min at 37 °C, with shaking. Subsequently, the cells were transferred to 25 mL of 2× yeast extract tryptone/carbenicillin/kanamycin medium and incubated overnight at 37 °C with shaking at 200 rpm. The amplified phages were precipitated with 20% PEG‐8000/2.5 M NaCl to be used for the next round of selection.
The naïve T‐Surf libraries in P8 and P3 and the enriched phage pools after four rounds were barcoded for NGS as previously described.^[ [59] ^] Briefly, 5 µL of the phage pool was used as a template for 20 cycles of a 50 µL PCR reaction using […] each of forward and reverse barcoded primers and PrimeSTAR Max DNA Polymerase. The PCR products were purified using Expin Gel SV (GeneAll). The NGS samples were quantified using qPCR, following the qPCR Quantification Protocol Guide (KAPA Library Quantification kits for Illumina Sequencing Platform), and qualified using the TapeStation High Sensitivity D1000 ScreenTape (Agilent Technologies). The indexed libraries were further sequenced by Macrogen (Seoul, Republic of Korea) using the NovaSeq platform (Illumina) with 100 bp paired‐end reads. The reads were demultiplexed by barcodes and filtered for an average Phred quality score of at least 30, followed by trimming the flanking consensus sequences using Cutadapt (version 2.3). Peptide sequence populations were analyzed according to the read counts.

[1] = P8_MyD88: rank by count after grouping
[2] = P8_MyD88: rank by count before grouping
[3] = 4R selection against MyD88, rank after grouping
[4] = 4R selection against MyD88, rank before grouping
[5] = P3_MyD88 pool: P3 T-Surf phage library
[6] = P3_MyD88: rank by count after grouping
[7] = P3_MyD88: rank by count before grouping
[8] = selection against MyD88, rank by count after grouping
[9] = selection against MyD88, rank by count before grouping
[10] = selection against MyD88, rank after grouping
[11] = selection against MyD88, rank before grouping
[12] = selection against MyD88 TIR, rank by count after grouping
[13] = selection against MyD88 TIR, rank by count before grouping

T1 sequence (Q99836 148-296): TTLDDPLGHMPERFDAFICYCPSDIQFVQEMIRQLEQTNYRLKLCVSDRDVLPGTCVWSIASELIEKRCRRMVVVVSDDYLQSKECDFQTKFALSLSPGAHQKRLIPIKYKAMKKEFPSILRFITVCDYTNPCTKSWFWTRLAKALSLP

Sequence: IFISHLYNSLTNAGIY
Rank (after) [1]: 178
Rank (before) [2]: 227

Sequence: IQCRNATSPAALLIGR
P8_MyD88 Rank (after) [3]: 651
P8_MyD88 Rank (before) [4]: 3652

Sequence: ISYRQGRWRLLELSKK
Rank (after) [6]: 461
Rank (before) [7]: 2919

Sequence: IVQALWSKVHHSLTLF
Rank (after) [1]: 145
Rank (before) [2]: 157
Population (P8_MyD88 pool: P8 T-Surf phage library): 0.01%

Sequence: IVQEQDGFWVRLIEAL
P8_MyD88 Rank (after) [3]: 616
P8_MyD88 Rank (before) [4]: 3611

Sequence: IWVWDFYNSQLEGPMG
P8_MyD88 Rank (after) [8]: 753
P8_MyD88 Rank (before) [9]: 3609

Sequence: KEPENYRFALHERDFP
P3_MyD88 Rank (after) [3]: 662
P3_MyD88 Rank (before) [4]: 3685

Sequence: KEPERYQFAIPERDFP
P3_MyD88 Rank (after) [10]: 540
P3_MyD88 Rank (before) [11]: 3681

Sequence: KERPFGAQRAEKCVP
Rank (after) [6]: 447
Rank (before) [7]: 3673

Sequence: KEVEGWRDALPTVASL
P3_MyD88 Rank (after) [12]: 220
P3_MyD88 Rank (before) [13]: 3622

Sequence: KEVEGWRDALYEAANLS
P3_MyD88 Rank (after) [8]: 684
P3_MyD88 Rank (before) [9]: 3620

Sequence: KFFLFFMILAFSMNR
P8_MyD88 Rank (after) [10]: 487
P8_MyD88 Rank (before) [11]: 3892

Sequence: KIARCMIFGVFWKAP
P8_MyD88 Rank (after) [10]: 527
P8_MyD88 Rank (before) [11]: 3897

Sequence: KLDSAMIIKVQRWREA
P3_MyD88 Rank (after) [3]: 618
P3_MyD88 Rank (before) [4]: 3698

Sequence: KMQKWKDALYEAPNL
Rank (after) [6]: 113
Rank (before) [7]: 1321

Sequence: KNLFNELVHVWSSKANSLVG
Rank (after) [6]: 148
Rank (before) [7]: 800

Sequence: KNLFNLLGSKDIRALM
P3_MyD88 Rank (after) [10]: 542
P3_MyD88 Rank (before) [11]: 3781

Sequence: KNLLNALMSKNIRTFM
P3_MyD88 Rank (after) [3]: 622
P3_MyD88 Rank (before) [4]: 3789

Sequence: KNLLNELVSKTIRTFM
Rank (after) [6]: 470
Rank (before) [7]: 3790

The remaining lines, values ahead:

Population [5]: 0.00291%
Sequence: ISFREGLWRLLELSKK

Rank (after) [6]: 425
Rank (before) [7]: 3599
Sequence: KARQFGALREEKLRAA

Population [5]: 0.00349%
Sequence: KDVEGWRDALTKVASL

P3_MyD88 Rank (after) [3]: 651
P3_MyD88 Rank (before) [4]: 3662
Sequence: KELVHVWSSKANSRVG

P3_MyD88 Rank (after) [3]: 670
P3_MyD88 Rank (before) [4]: 3663
Sequence: KEREFGAQRAGKWRAA

P3_MyD88 Rank (after) [10]: 567
P3_MyD88 Rank (before) [11]: 3671
Sequence: KERPFGAQRAEKWRAALT

P3_MyD88 Rank (after) [3]: 666
P3_MyD88 Rank (before) [4]: 3653
Sequence: KEVEGWRCADQSGEP

Rank (after) [6]: 138
Rank (before) [7]: 3640
Sequence: KEVEGWRDALTKAANL

Rank (after) [6]: 109
Rank (before) [7]: 1305
Sequence: KEVEGWRDALTKVACR

Population [5]: 0.0032%
Sequence: KEVEGWRDALTKVATI

P3_MyD88 Rank (after) [3]: 626
P3_MyD88 Rank (before) [4]: 3614
Sequence: KEVEGWRGALTKKASL

P3_MyD88 Rank (after) [3]: 617
P3_MyD88 Rank (before) [4]: 3650
Sequence: KEVEGWRNALTNVASL

P3_MyD88 Rank (after) [8]: 713
P3_MyD88 Rank (before) [9]: 3606
Sequence: KEVEVWRDALTKVVGL

P3_MyD88 Rank (after) [12]: 252
P3_MyD88 Rank (before) [13]: 3659
Sequence: KEVKGWRDALTTVASL

P3_MyD88 Rank (after) [10]: 576
P3_MyD88 Rank (before) [11]: 3706
Sequence: KLDSARMRKVQRLRET

P3_MyD88 Rank (after) [3]: 636
P3_MyD88 Rank (before) [4]: 3714
Sequence: KMQKWNDALYEAAHLR

Rank (after) [6]: 103
Rank (before) [7]: 542
Sequence: KNLFNELVSKNIRTL

P3_MyD88 Rank (after) [8]: 686
P3_MyD88 Rank (before) [9]: 3755
Sequence: KNLFNELVSKNIVPL

P3_MyD88 Rank (after) [8]: 724
P3_MyD88 Rank (before) [9]: 3792
Sequence: KNLIMEQLSKELHTVM

Population [5]: 0.00466%
Sequence: KNLLNELVSKNIRTFM

P3_MyD88 Rank (after) [12]: 260
P3_MyD88 Rank (before) [13]: 3787
Sequence: KNLSNELVSKNILTFM

P3_MyD88 Rank (after) [10]: 557
P3_MyD88 Rank (before) [11]: 3552
Sequence: KQWRNALTAEANLSGW
